Source: patent publication US12296048B2, “Polymer particles for neutrophil injury” (THE REGENTS OF THE UNIVERSITY OF MICHIGAN, priority 2019, dated 2025)

Test system: mice with LPS-induced ALI
Type: in vivo
Protocol: In a lipopolysaccharide (LPS) mouse model of ALI, LPS administered to the lungs of healthy mice induces rapid recruitment of neutrophils into the lungs.
Poly-A microspheres were injected into the tail vein of mice with LPS-induced ALI at 30 mg/kg.
Male BALB/c or C57BL/6J mice were anesthetized with inhaled isoflurane, and given 50 μL of 0.4 mg/mL LPS orotracheally to induce lung inflammation. Particles (2×10^8 in 100 μL PBS per mouse) were injected at either 2 hrs or 6 hrs post-instillation via tail vein catheter. Methods of euthanasia and sample processing are shared with the P. Aeruginosa model (below) except instead of cytospin BALF, cells were stained with CD45, CD11b, and Ly6G, and were fixed overnight before flow cytometry to determine the % of neutrophils and macrophages in each sample.

Q: Which results are given for `CC(=O)Oc1ccccc1C(=O)O` [aspirin]?
A: BALF concentration of KC (LPS-ALI mice): not; BALF concentration of MIP2 (LPS-ALI mice): not; BALF neutrophil count compared to ALI mice with no particles (tail vein injection 1 hr after LPS, Poly-A 30 mg/kg, aspirin in DMSO): did not reduce
